The values that follow come from PubChem BioAssay AID2286 (Southern Research Specialized Biocontainment Screening …, 2010).

Broadly, the CC50 is the concentration giving 50% cytotoxicity. What is called viability is a read-out of living cells in per cent, often relative to untreated cells.

For assay [1], the system named is MAGI-CCR5 cells viability, CellTiter-Glo ATP luminescence. The assay is described as follows: MAGI-CCR5 and HeLa-R5-16 cytotoxicity, dose response, cytotoxicity control for HIV-1 fusion inhibitor project, cell-based, MAGI and MAGI-HeLa co-culture (AID 2286).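 Further: cells exposed to compound for at least 64 h before ATP readout.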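 On minimum viability: 100% = median of DMSO vehicle wells with no ATP signal meaning 0%.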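 On viability: 100% = median of DMSO vehicle wells with no ATP signal meaning 0%.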
Assay in assay [2]: as above
The note with it: MAGI-CCR5 cells viability, CellTiter-Glo ATP luminescence; for minimum viability: measured here: MAGI minimum viability across doses. (In general: ATP-based viability assays read luminescence as a measure of living cells.)

Where [3] appears, read: measured here: MAGI + HeLa-R5-16 co-culture viability.
Where [4] appears, read: MAGI-HeLa co-culture viability, at 50 µM, stronger effect = lower value.

Active and inactive are the calls of the source.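 How the source made its calls: active means minimum cell viability of 80% or lower across the dose range, counted as toxic; inactive means minimum cell viability above 80%.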 A value given as a limit tells only on which side of the number the result lay.

For the molecule `Cc1ccccc1C(=O)Nc1cccc(C(=O)N/N=C/c2cc(Cl)cc([N+](=O)[O-])c2O)c1`, in assay [1] (setting [3]), the CC50 is greater than 50 µM. For the same molecule, the viability in assay [2] (setting [4]) came out at 68.4%. In assay [2] (at 50 µM, stronger effect = lower value), this molecule yielded a minimum viability of 52.8%.

`COc1cc(/C=C(\C#N)c2nc3ccccc3s2)cc([N+](=O)[O-])c1O`: the CC50 in assay [1] was 38.1 µM. The viability in assay [2] (setting [4]) worked out at 101%. In addition, the minimum viability in assay [2] (at 50 µM, stronger effect = lower value) is 43.3%.

Turning to `CSc1nnc(-c2ccccc2N=Cc2c(C)[nH]n(-c3ccc4ccccc4c3)c2=O)c(=O)[nH]1`, in assay [1] (setting [3]), the CC50 is greater than 50 µM. The viability in assay [2] (setting [4]) turned out to be 55.5%. The molecule also gave a minimum viability in assay [2] (at 50 µM, stronger effect = lower value) of 53.7%.

With `O=C(NC(=S)Nc1ccccc1C(=O)O)c1ccc(-c2ccc(Br)cc2)o1`, the CC50 in assay [1] (setting [3]) is greater than 50 µM. In assay [2] (setting [4]), the viability was found to be 59.6%. In assay [2] (at 50 µM, stronger effect = lower value), this molecule returned a minimum viability of 77.9%.

Turning to `COc1cc(/C=C2\SC(=S)NC2=O)ccc1OS(=O)(=O)c1ccccc1`, the half-maximal cytotoxic concentration (CC50) in assay [1] was 17.9 µM; in assay [1] (setting [3]), 40.7 µM. In addition, the viability in assay [2] (setting [4]) worked out at 35.9%. For the same molecule, the minimum viability in assay [2] (at 50 µM, stronger effect = lower value) was found to be 24.8%.

On to `Cc1cccc(C)c1-n1cccc1/C=C1\SC(=S)N(c2cccc(C(=O)O)c2)C1=O`, for which, in assay [1] (setting [3]), the CC50 is greater than 50 µM. The viability in assay [2] (setting [4]) was 67.8%. Also, in assay [2] (at 50 µM, stronger effect = lower value), the minimum viability was 62.3%.

As to `O=[N+]([O-])c1cc(Cl)cc(/C=N/NC(=S)Nc2cc(S(=O)(=O)N3CCOCC3)ccc2Cl)c1O`, the CC50 was 31.1 µM in assay [1] and greater than 50 µM in assay [1] (setting [3]). In assay [2] (setting [4]), the viability was found to be 65.7%. The minimum viability in assay [2] (at 50 µM, stronger effect = lower value) amounted to 34.7%.

As to `O=C(NN1C(=O)/C(=C/c2ccc(O)cc2)SC1=S)c1ccccc1O`, the CC50 is 26.7 µM in assay [1] and 41.3 µM in assay [1] (setting [3]). Further, the viability in assay [2] (setting [4]) came out at 36.5%. Besides, in assay [2] (at 50 µM, stronger effect = lower value), the minimum viability turned out to be 27.6%.

Turning to `CN(C)S(=O)(=O)c1cccc(-c2nn(-c3ccccc3)cc2/C=C2\SC(=S)N(CC(=O)O)C2=O)c1`, the 50% cytotoxic concentration (CC50) in assay [1] (setting [3]) was greater than 50 µM. In addition, the viability in assay [2] (setting [4]) is 74.7%. In assay [2] (at 50 µM, stronger effect = lower value), this molecule displayed a minimum viability of 68.6%.

As to `CSc1nc(SCC(=O)O)c2sc3nc(-c4ccccc4)c4c(c3c2n1)CCC4`, the CC50 in assay [1] (setting [3]) is greater than 50 µM. The values for the viability in assay [2] (setting [4]) and in assay [2] (at 25 µM (top of the series)) were 70.5% and 99.5% (inactive), respectively. The minimum viability in assay [2] (at 1.56 µM, stronger effect = lower value) was found to be 88.2%.

Consider `O=C(O)c1ccccc1NC(=O)c1ccccc1Nc1ccccc1`, for which the CC50 in assay [1] is 42.7 µM; in assay [1] (setting [3]), greater than 50 µM. Besides, in assay [2] (setting [4]), the viability was determined as 58.2%. The molecule also showed a minimum viability in assay [2] (at 50 µM, stronger effect = lower value) of 47.6%.

For the molecule `O=C(N/N=C/c1ccc(-c2ccc(S(=O)(=O)Nc3ncccn3)cc2)o1)c1cc2ccccc2cc1O`, the CC50 was 15.8 µM in assay [1] and 32.6 µM in assay [1] (setting [3]). For the same molecule, the viability in assay [2] (setting [4]) amounted to 30.7%. The molecule further displayed a minimum viability in assay [2] (at 50 µM, stronger effect = lower value) of 16.4%.

As for `COc1ccc(S(=O)(=O)Nc2ccccc2C(=O)Nc2nc(-c3ccc(F)cc3)cs2)cc1OC`, the results for the CC50 in assay [1] and in assay [1] (setting [3]) were 6.51 µM and 14.8 µM, respectively. The viability in assay [2] (setting [4]) worked out at 27.5%. The molecule further came in with a minimum viability in assay [2] (at 50 µM, stronger effect = lower value) of 18.4%.

Take `CCOc1cc(/C=C2\C(=N)N3N=C(S(C)(=O)=O)SC3=NC2=O)ccc1OCCOc1cccc(OC)c1`: the CC50 in assay [1] (setting [3]) turned out to be 43.2 µM. Further, the viability in assay [2] (setting [4]) came to 47.3%. In addition, in assay [2] (at 50 µM, stronger effect = lower value), the minimum viability came to 78%.

Take `COc1cc([N+](=O)[O-])cc(/C=N/NC(=O)c2cc(-c3ccccc3)nc3ccccc23)c1O`: in assay [1] (setting [3]), the CC50 is greater than 50 µM. For the same molecule, the viability in assay [2] (setting [4]) amounted to 56.7%. The molecule also displayed a minimum viability in assay [2] (at 25 µM, stronger effect = lower value) of 53.9%.

Regarding `O=C(NN1C(=O)/C(=C/c2ccc(O)c([N+](=O)[O-])c2)SC1=S)c1ccccc1Cl`, in assay [1] (setting [3]), the CC50 was greater than 50 µM. The viability in assay [2] (setting [4]) turned out to be 76.4%. Moreover, the minimum viability in assay [2] (at 50 µM, stronger effect = lower value) is 67.5%.

In the case of `COc1cc(/C=C2/SC(=S)N(Cc3ccccc3)C2=O)ccc1OCC(=O)O`, the CC50 in assay [1] was 30.2 µM; in assay [1] (setting [3]) it was greater than 50 µM. Also, in assay [2] (setting [4]), the viability turned out to be 79%. This molecule came in with a minimum viability in assay [2] (at 50 µM, stronger effect = lower value) of 4.94%.

As for `C=CC#CC[N+]1(CC#Cc2ccccc2)CCOCC1`, in assay [1] (setting [3]), the CC50 is greater than 50 µM. For the same molecule, the viability in assay [2] (setting [4]) was 70%. Further, in assay [2] (at 50 µM, stronger effect = lower value), the minimum viability amounted to 76.2%.
